“And” between values parts separate entries of the source, which are not always exact repeats. Equal values may be shown once. Toxic doses and inconclusive results are not listed. The calls were made as follows: active = survival T/C of 150% or more; inactive = T/C below 125% in these data.
Test system: P388 leukemia ip, CD2F1 mice, survival T/C
Experiment: NCI In Vivo Anticancer Drug Screen. Data for tumor model P388 Leukemia (intraperitoneal) in CD2F1 (CDF1) mice
Conditions: endpoint: median survival time, higher = longer survival
Outline: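 Mice carrying the transplanted tumor received test compound or vehicle. Survival was recorded in each group, and the value is the treated-group measurement divided by that of the vehicle-treated control group.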

[1] = dose: 50.0 mg/kg/injection, schedule: Q01DX009 (ip), vehicle: saline
[2] = dose: 100.0 mg/kg/injection, schedule: Q01DX009 (ip), vehicle: saline
[3] = dose: 200.0 mg/kg/injection, schedule: Q01DX009 (ip), vehicle: saline
[4] = dose: 50.0 mg/kg/injection, schedule: Q01DX005 (ip), vehicle: saline
[5] = dose: 50.0 mg/kg/injection, schedule: Q01DX005 (ip), vehicle: Klucel (hydroxypropylcellulose) (HPC)
[6] = dose: 60.0 mg/kg/injection, schedule: Q01DX005 (ip), vehicle: Klucel (hydroxypropylcellulose) (HPC)

Measured: T/C

C[C@]12CC[C@H]3[C@@H](CCC4=CC(=O)CC[C@@H]43)[C@@H]1CC[C@@H]2OC(=O)N(CCCl)N=O
inactive: dose: 12.5 mg/kg/injection, schedule: Q01DX009 (ip), vehicle: other 123 % of control | dose: 15.0 mg/kg/injection, schedule: Q01DX009 (ip), vehicle: saline 96 % of control | dose: 15.0 mg/kg/injection, schedule: Q04DX003 (ip), vehicle: saline 100 % of control and 107 % of control | dose: 25.0 mg/kg/injection, schedule: Q01DX005 (ip), vehicle: other 104 % of control | dose: 25.0 mg/kg/injection, schedule: Q01DX009 (ip), vehicle: other 118 % of control | dose: 30.0 mg/kg/injection, schedule: Q01DX009 (ip), vehicle: saline 86 % of control | dose: 30.0 mg/kg/injection, schedule: Q04DX003 (ip), vehicle: saline 101 % of control and 106 % of control and 112 % of control | dose: 50.0 mg/kg/injection, schedule: Q01DX005 (ip), vehicle: other 96 % of control | dose: 60.0 mg/kg/injection, schedule: Q01DX009 (ip), vehicle: saline 91 % of control | dose: 60.0 mg/kg/injection, schedule: Q04DX003 (ip), vehicle: saline 98 % of control and 101 % of control and 120 % of control | dose: 120.0 mg/kg/injection, schedule: Q01DX009 (ip), vehicle: saline with Tween-80 86 % of control | dose: 120.0 mg/kg/injection, schedule: Q01DX009 (ip), vehicle: saline 92 % of control | dose: 120.0 mg/kg/injection, schedule: Q04DX003 (ip), vehicle: saline 102 % of control and 106 % of control

CCCCCCCCCC#CC(=O)OC
inactive: [1] 105 % of control | [2] 105 % of control | [3] 105 % of control

Cc1cc(NCCCCCCCCNc2cc(C)nc3cc([N+](=O)[O-])ccc23)c2ccc([N+](=O)[O-])cc2n1
inactive: dose: 12.5 mg/kg/injection, schedule: Q01DX009 (ip), vehicle: water 110 % of control | dose: 25.0 mg/kg/injection, schedule: Q01DX009 (ip), vehicle: water 101 % of control

CCN(CC)CCCC(C)n1c2nc(=O)[nH]c(=O)c-2nc2cc(Cl)ccc21 (centres undefined)
inactive: dose: 12.5 mg/kg/injection, schedule: Q01DX005 (ip), vehicle: saline 98 % of control | dose: 25.0 mg/kg/injection, schedule: Q01DX005 (ip), vehicle: saline 104 % of control | [4] 117 % of control and 119 % of control

CC(=O)/C(C(=N)C(=O)c1ccccc1)=C(\C)O
inactive: dose: 60.0 mg/kg/injection, schedule: Q01DX005 (ip), vehicle: saline with Tween-80 96 % of control | dose: 120.0 mg/kg/injection, schedule: Q01DX005 (ip), vehicle: saline with Tween-80 98 % of control | dose: 240.0 mg/kg/injection, schedule: Q01DX005 (ip), vehicle: saline with Tween-80 99 % of control

CN(C)c1ccc(NC2=C(Cl)C(=O)C(Nc3ccc(N(C)C)cc3)=C(Cl)C2=O)cc1
inactive: dose: 25.0 mg/kg/injection, schedule: Q01DX005 (ip), vehicle: saline with Tween-80 101 % of control | dose: 50.0 mg/kg/injection, schedule: Q01DX005 (ip), vehicle: saline with Tween-80 92 % of control | dose: 100.0 mg/kg/injection, schedule: Q01DX005 (ip), vehicle: saline with Tween-80 88 % of control

O=C(CC(=O)c1ccccc1)c1ccccc1.[Tl]
inactive: dose: 6.25 mg/kg/injection, schedule: Q01DX009 (ip), vehicle: saline with Tween-80 100 % of control | dose: 12.5 mg/kg/injection, schedule: Q01DX009 (ip), vehicle: saline with Tween-80 98 % of control

CC(=O)OC1(C)C(=O)OC/C2=C/CN(C)CCC(OC(=O)C(O)(C(C)Cl)CC1C)C2=O (centres undefined)
inactive: dose: 12.5 mg/kg/injection, schedule: Q01DX005 (ip), vehicle: Klucel (hydroxypropylcellulose) (HPC) 103 % of control | dose: 25.0 mg/kg/injection, schedule: Q01DX005 (ip), vehicle: Klucel (hydroxypropylcellulose) (HPC) 100 % of control | [5] 99 % of control and 103 % of control

C1=CNc2ccccc2N=C1
inactive: [1] 103 % of control | [2] 112 % of control | [3] 99 % of control

Cc1ccccc1-c1nc2cc(Cl)ccc2c(=O)o1
inactive: dose: 25.0 mg/kg/injection, schedule: Q01DX009 (ip), vehicle: saline with Tween-80 105 % of control | dose: 50.0 mg/kg/injection, schedule: Q01DX009 (ip), vehicle: saline with Tween-80 110 % of control | dose: 100.0 mg/kg/injection, schedule: Q01DX009 (ip), vehicle: saline with Tween-80 110 % of control

COc1ccc2c(CSCCO)cc(=O)oc2c1
inactive: dose: 50.0 mg/kg/injection, schedule: Q04DX003 (ip), vehicle: suspension in saline 97 % of control | dose: 100.0 mg/kg/injection, schedule: Q04DX003 (ip), vehicle: suspension in saline 100 % of control | dose: 200.0 mg/kg/injection, schedule: Q04DX003 (ip), vehicle: suspension in saline 98 % of control

O=C(CNC(=O)Nc1ccc(NC(=O)NCC(=O)Nc2ccc(C3=NCCN3)cc2)cc1)Nc1ccc(C2=NCCN2)cc1
inactive: [1] 105 % of control and 106 % of control | [2] 93 % of control | [3] 111 % of control and 97 % of control

CC(C)(Oc1ccc(Cl)cc1)C(=O)NC(CS(C)(=O)=O)C(=O)O (centres undefined)
inactive: [4] 99 % of control | dose: 100.0 mg/kg/injection, schedule: Q01DX005 (ip), vehicle: saline 99 % of control | dose: 200.0 mg/kg/injection, schedule: Q01DX005 (ip), vehicle: saline 100 % of control

C=CCC(O)CC1CC2CCCCN2O1 (centres undefined)
inactive: dose: 50.0 mg/kg/injection, schedule: Q04DX003 (ip), vehicle: saline 104 % of control | dose: 100.0 mg/kg/injection, schedule: Q04DX003 (ip), vehicle: saline 104 % of control | dose: 200.0 mg/kg/injection, schedule: Q04DX003 (ip), vehicle: saline 99 % of control

COc1cccc2c1C(=O)c1c(O)c3c(c(O)c1C2=O)CC(O)(C(C)=O)CC3OC1CC(NC(=O)C(F)(F)F)C(OC(=O)c2ccc([N+](=O)[O-])cc2)C(C)O1 (centres undefined)
inactive: dose: 3.13 mg/kg/injection, schedule: Q04DX003 (ip), vehicle: distilled water + Tween-80 102 % of control and 98 % of control | dose: 6.25 mg/kg/injection, schedule: Q04DX003 (ip), vehicle: distilled water + Tween-80 101 % of control and 100 % of control | dose: 12.5 mg/kg/injection, schedule: Q04DX003 (ip), vehicle: distilled water + Tween-80 99 % of control and 97 % of control | dose: 25.0 mg/kg/injection, schedule: Q04DX003 (ip), vehicle: distilled water + Tween-80 111 % of control and 108 % of control | dose: 50.0 mg/kg/injection, schedule: Q04DX003 (ip), vehicle: distilled water + Tween-80 95 % of control and 100 % of control

CCCCCC1NC(C(=O)O)CS1 (centres undefined)
inactive: dose: 50.0 mg/kg/injection, schedule: Q01DX009 (ip), vehicle: suspension in saline 88 % of control | dose: 100.0 mg/kg/injection, schedule: Q01DX009 (ip), vehicle: suspension in saline 94 % of control | dose: 200.0 mg/kg/injection, schedule: Q01DX009 (ip), vehicle: suspension in saline 102 % of control

COc1ccc(C(=O)C(=O)c2ccc(OC)cc2)cc1
inactive: [6] 99 % of control | dose: 120.0 mg/kg/injection, schedule: Q01DX005 (ip), vehicle: Klucel (hydroxypropylcellulose) (HPC) 98 % of control | dose: 240.0 mg/kg/injection, schedule: Q01DX005 (ip), vehicle: Klucel (hydroxypropylcellulose) (HPC) 100 % of control

S=C(Cl)Sc1ccc(-c2ccc(SC(=S)Cl)cc2)cc1
inactive: [5] 88 % of control | dose: 100.0 mg/kg/injection, schedule: Q01DX005 (ip), vehicle: Klucel (hydroxypropylcellulose) (HPC) 88 % of control | dose: 200.0 mg/kg/injection, schedule: Q01DX005 (ip), vehicle: Klucel (hydroxypropylcellulose) (HPC) 87 % of control

O=C(C=C(C(F)(F)F)C(F)(F)F)c1cccc(S(=O)(=O)F)c1
inactive: dose: 3.13 mg/kg/injection, schedule: Q04DX003 (ip), vehicle: saline 100 % of control | dose: 6.25 mg/kg/injection, schedule: Q04DX003 (ip), vehicle: saline 100 % of control | dose: 12.5 mg/kg/injection, schedule: Q04DX003 (ip), vehicle: saline 95 % of control

CC1=C(C(=O)Nc2ccccc2Cl)C(c2cccc([N+](=O)[O-])c2)C(C(=O)Nc2ccccc2Cl)=C(C)N1
inactive: dose: 15.0 mg/kg/injection, schedule: Q01DX005 (ip), vehicle: Klucel (hydroxypropylcellulose) (HPC) 93 % of control | dose: 30.0 mg/kg/injection, schedule: Q01DX005 (ip), vehicle: Klucel (hydroxypropylcellulose) (HPC) 90 % of control | [6] 88 % of control

CC1(C)CC2C3=CCC4C5(C)CCC(O)C(C)(C)C5CCC4(C)C3(C)CCC2(CO)C(O)C1O (centres undefined)
inactive: dose: 3.25 mg/kg/injection, schedule: Q01DX005 (ip), vehicle: Klucel (hydroxypropylcellulose) (HPC) 99 % of control | dose: 6.5 mg/kg/injection, schedule: Q01DX005 (ip), vehicle: Klucel (hydroxypropylcellulose) (HPC) 99 % of control | dose: 13.0 mg/kg/injection, schedule: Q01DX005 (ip), vehicle: Klucel (hydroxypropylcellulose) (HPC) 99 % of control | dose: 26.0 mg/kg/injection, schedule: Q01DX005 (ip), vehicle: Klucel (hydroxypropylcellulose) (HPC) 98 % of control

From PubChem BioAssay AID330 (DTP/NCI, 2004)
